Publication PMC10757720, “Impact of CRAMP-34 on Pseudomonas aeruginosa biofilms and extracellular metabolites” (Frontiers in Cellular and Infection Microbiology, 2023)
In brackets after ≈: the same amount, converted by molar mass. Read-outs that look alike come from different tables or passages of the source. Positions of bridges follow the written chain, without caps; N, C: chain ends. Non-standard residues stand in square brackets, D forms with d. Residues, ends and D or L forms follow the SMILES beside them. No end group written: not given here. *: point of attachment. X1 = CC[C@H](C)CCCCC(=O)*; Dab = NCC[C@H](N)C(=O)O

Experiments:
PAO1 = assay: microbe, parasite or virus in culture; format: cell-based, Pseudomonas aeruginosa
Excerpt: Supplement DataSheet_1.docx, table 1: Table S1 Minimum inhibitory concentrations of various drugs against PAO1 | column: MIC(μg/mL)

surface-attached biofilm = conditions: exogenous addition of succinate and glutamate; ref Sauer et al., 2004; cited from earlier work
PAO1 preformed biofilms = assay: Effect of exogenous glutamate and succinate on PAO1 preformed biofilm biomass; conditions: preformed 96-h-old biofilms, different concentrations, 37°C, 24 h; certain dose-dependent effect (one way ANOVA)
[1] = system: PAO1 planktonic and dispersed bacteria; assay: Inducible resistance, multi-step induction over 25 generations; format: cell-based, Pseudomonas aeruginosa; conditions: for increase in the MIC value after induction: 25 continuous generations, induction with the agent alone at 1/4 MIC, consistent across planktonic and dispersed bacteria; for MIC values after co-induction with CRAMP-34: antibiotic at 1/4 MIC combined with CRAMP-34 at 1/4 MIC, 25 generations, vs antibiotic alone, planktonic and dispersed bacteria
Method: Bacterial resistance was induced in vitro using a modified multi-step method ([Zhu et al., 2017]). The method of obtaining dispersed bacteria was described previously ([Zhang et al., 2022]). Planktonic bacteria and biofilm dispersion bacteria were induced at the initial 1/4 MIC concentration of antimicrobial agents every 24 hours. The latest MIC was measured every 2 generations and the drug concentration was changed according to the latest results.

[2] = Pseudomonas aeruginosa, read-out: MIC

**Q.** With `NCC[C@H](O)C(=O)N[C@@H]1C[C@H](N)[C@@H](O[C@H]2O[C@H](CN)[C@@H](O)[C@H](O)[C@H]2O)[C@H](O)[C@H]1O[C@H]1O[C@H](CO)[C@@H](O)[C@H](N)[C@H]1O` [Amikacin] as the compound, how does the MIC (PAO1; [2]) read?
**A.** Its MIC is 0.25 µg/mL (≈ 0.427 µM).

**Q.** With `CCN1CCN(C(=O)N[C@@H](C(=O)N[C@@H]2C(=O)N3[C@@H]2SC(C)(C)[C@@H]3C(=O)O)c2ccccc2)C(=O)C1=O` [Piperacillin] as the compound, how does the MIC (PAO1; [2]) read?
**A.** Its MIC is 2 µg/mL (≈ 3.86 µM).

**Q.** With `N[C@@H](CCC(=O)O)C(=O)O` [glutamate] as the compound, how does the “reduction in surface-attached biofilm biomass” value (surface-attached biofilm) read?
**A.** Its value is ~80%.

**Q.** And the “effect of exogenous addition on pre-biofilms (biomass)” value (PAO1 preformed biofilms)?
**A.** The value was “significant effects on eradicating pre-biofilms”.

**Q.** Which MIC (PAO1; [2]) does the source give for `CC(C)(O/N=C(\C(=O)N[C@@H]1C(=O)N2C(C(=O)[O-])=C(C[n+]3ccccc3)CS[C@H]12)c1csc(N)n1)C(=O)O` [Ceftazidime] here?
**A.** The MIC was 1 µg/mL (≈ 1.83 µM).

**Q.** For `CNC(C)C1CCC(N)C(OC2C(N)CC(N)C(OC3OCC(C)(O)C(NC)C3O)C2O)O1` (centres unmarked) [Gentamicin], which MIC (PAO1; [2]) is on record?
**A.** The MIC was 0.5 µg/mL (≈ 1.05 µM).

**Q.** For `CCN1CCN(c2cc3c(cc2F)c(=O)c(C(=O)O)cn3C2CC2)CC1` [Enrofloxacin], which MIC (PAO1; [2]) is on record?
**A.** Its MIC is 0.5 µg/mL (≈ 1.39 µM).

**Q.** Which MIC (PAO1) does the source give for “GLLRKGGEKIGEKLKKIGQKIKNFFQKLVPQPEQ [CRAMP-34]” here?
**A.** The MIC was 31.25 µg/mL.

**Q.** For `CC[C@H]1OC(=O)[C@H](C)[C@@H](O[C@H]2C[C@@](C)(OC)[C@@H](O)[C@H](C)O2)[C@H](C)[C@@H](O[C@@H]2O[C@H](C)C[C@H](N(C)C)[C@H]2O)[C@](C)(O)C[C@@H](C)/C(=N\OCOCCOC)[C@H](C)[C@@H](O)[C@]1(C)O` [Roxithromycin], which MIC (PAO1; [2]) is on record?
**A.** The MIC was 512 µg/mL (≈ 612 µM).

**Q.** Which “reduction in surface-attached biofilm biomass” value (surface-attached biofilm) does the source give for `O=C(O)CCC(=O)O` [succinate] here?
**A.** Its value is ~80%.

**Q.** And the “effect of exogenous addition on pre-biofilms (biomass)” value (PAO1 preformed biofilms)?
**A.** The value was “significant effects on eradicating pre-biofilms”.

**Q.** With `C[C@@H](O)[C@H]1C(=O)N2C(C(=O)O)=C(S[C@@H]3CN[C@H](C(=O)N(C)C)C3)[C@H](C)[C@H]12` [Meropenem] as the compound, how does the MIC (PAO1; [2]) read?
**A.** The MIC was 0.5 µg/mL (≈ 1.3 µM).

**Q.** Which results are given for `CC[C@H](C)CCCCC(=O)N[C@@H](CCN)C(=O)N[C@H](C(=O)N[C@@H](CCN)C(=O)N[C@H]1CCNC(=O)[C@H]([C@@H](C)O)NC(=O)[C@H](CCN)NC(=O)[C@H](CCN)NC(=O)[C@H](CC(C)C)NC(=O)[C@@H](CC(C)C)NC(=O)[C@H](CCN)NC1=O)[C@@H](C)O` [Colistin] (X1-[Dab]T[Dab][Dab][Dab][dL]L[Dab][Dab]T; lactam 4-C (inferred); N-terminus assumed)?
**A.** MIC (PAO1): 0.25 µg/mL (≈ 0.214 µM); increase in the MIC value after induction [1]: thirty-twofold; MIC values after co-induction with CRAMP-34 [1]: significantly reduced

**Q.** For `CN[C@H](CC(C)C)C(=O)N[C@H]1C(=O)N[C@@H](CC(N)=O)C(=O)N[C@H]2C(=O)N[C@H]3C(=O)N[C@H](C(=O)N[C@H](C(=O)O)c4cc(O)cc(O)c4-c4cc3ccc4O)[C@H](O)c3ccc(c(Cl)c3)Oc3cc2cc(c3O[C@@H]2O[C@H](CO)[C@@H](O)[C@H](O)[C@H]2O[C@H]2C[C@](C)(N)[C@H](O)[C@H](C)O2)Oc2ccc(cc2Cl)[C@H]1O` [Vancomycin], which MIC (PAO1; Pseudomonas aeruginosa) is on record?
**A.** The MIC was 1020 µg/mL (≈ 707 µM).

**Q.** Which MIC (PAO1) does the source give for `CO/N=C(\C(=O)N[C@@H]1C(=O)N2C(C(=O)[O-])=C(C[n+]3cccc4c3CCCC4)CS[C@H]12)c1csc(N)n1.O=S(=O)(O)O` [Cefoquinol] here?
**A.** The MIC was 2 µg/mL.

**Q.** For `O=C(O)c1cn(C2CC2)c2cc(N3CCNCC3)c(F)cc2c1=O` [Ciprofloxacin], which MIC (PAO1; [2]) is on record?
**A.** The MIC was 0.031 µg/mL (≈ 0.0936 µM).

**Q.** What about the “increase in the MIC value after induction” value [1] of the same compound?
**A.** Its value is “sixty-fourfold”.

**Q.** And the “MIC values after co-induction with CRAMP-34” value [1]?
**A.** The value was “significantly reduced”.

**Q.** Which MIC (PAO1; [2]) does the source give for `CCN1CCN(C(=O)N[C@@H](C(=O)N[C@@H]2C(=O)N3C(C(=O)O)=C(CSc4nnnn4C)CS[C@H]23)c2ccc(O)cc2)C(=O)C1=O` [Cefoperazone] here?
**A.** Its MIC is 4 µg/mL (≈ 6.2 µM).

**Q.** Which MIC (PAO1; [2]) does the source give for `CC[C@H]1OC(=O)[C@H](C)[C@@H](O[C@H]2C[C@@](C)(OC)[C@@H](O)[C@H](C)O2)[C@H](C)[C@@H](O[C@@H]2O[C@H](C)C[C@H](N(C)C)[C@H]2O)[C@](C)(O)C[C@@H](C)CN(C)[C@H](C)[C@@H](O)[C@]1(C)O` [Azithromycin] here?
**A.** The MIC was 16 µg/mL (≈ 21.4 µM).

**Q.** Which MIC (PAO1; [2]) does the source give for `C[C@@H](O)[C@H]1C(=O)N2C(C(=O)O)=C(SCCN=CN)C[C@H]12` [Imipenem] here?
**A.** Its MIC is 2 µg/mL (≈ 6.68 µM).
